Entries after “also recorded” stand apart in the source; their conditions may differ. Like-named read-outs stand apart in the source and are kept apart here.
Tests used:
PC12 SOD1^G93A cells [1] = settings: neuroprotection against MG-132-induced SOD1^G93A toxicity in PC12 cells, cited from earlier work
PC12 SOD1^G93A cells [2] = assay: Neuroprotection against MG-132-induced toxicity in PC12 cells expressing mutant SOD1^G93A (calcein-AM viability); type: cell-based; settings: Rattus norvegicus, PC-12, MG-132-induced toxicity, inactive photoreactive controls, read-out: EC50
Experimental: With this information in hand, we implemented a phenotypic drug discovery approach to identify a novel therapeutic for treating ALS. The study employed a rat PC12 cell-based assay that expresses SOD1^G93A mutation for screening a chemical library of more than 50,000 compounds to identify promising hits (Figure 1 compounds 3 and 4). The hits are based on attenuating proteasome inhibitor MG-132-induced SOD1^G93A cellular toxicity.
Viability EC50 values were determined according to the previously reported assay procedure.[43] Briefly, PC12 cells were seeded at 15,000 cells/well in 96-well plates, and the medium was changed to remove the doxycycline 4 days prior to compound addition. Compounds were assayed in 12-point dose–response experiments to determine the potency and efficacy. The highest compound concentration tested was 32 μM, which was decreased by half with each subsequent dose. After a 24 h incubation with the analytes, MG-132 (400 nM) was added and the cells were incubated at 37 °C for 24 h. The cells were washed twice with PBS. Calcein-AM was added at a final concentration of 1 μM for 20 min at room temperature, and the fluorescence intensity was read in a POLARstar fluorescence plate reader (BMG). EC50 values were determined by standardizing fluorescent signal to DMSO treated controls. […] The presented data represent the mean average of duplicate experiments.

[3] = design: method as in PMID 23828940; settings: cell lysate, original CETSA protocol; cited from earlier work
[4] = molecular target: T1, 25 kDa protein band in PC12 SOD1^G93A cells (Rattus norvegicus, UniProt P62260); assay: Competition of PRAPP photoaffinity labeling of the 25 kDa band in PC12-SOD1^G93A cells; type: binding; settings: for concentration-dependent disappearance of the 25 kDa protein band in competition with PRAPP: scenario 1
T1 construct: we identified a 25 kDa covalently modified protein band in the PC12 SOD1^G93A cell line; endogenous in cells; host or cells: PC12-SOD1^G93A cells (live-cell UV photolabeling, then lysis)
T1 sequence (P62260 1-255): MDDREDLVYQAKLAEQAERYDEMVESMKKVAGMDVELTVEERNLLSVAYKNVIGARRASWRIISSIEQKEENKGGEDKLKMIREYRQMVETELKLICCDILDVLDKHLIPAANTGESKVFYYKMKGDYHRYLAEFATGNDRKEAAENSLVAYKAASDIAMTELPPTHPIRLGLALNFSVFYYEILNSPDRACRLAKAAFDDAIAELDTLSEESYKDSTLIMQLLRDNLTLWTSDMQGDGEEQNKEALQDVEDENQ
Experimental: PC12-SOD1^G93A cells were cultured and grown to 90% confluency (in 6-well plates) and washed once with PBS followed by the addition of serum medium containing the appropriate analyte at the indicated concentrations. Three incubation scenarios were studied (at 37 °C): Scenario 1) 12 h preincubation with PRAPP in the absence of MG-132; Scenario 2) 12 h preincubation with PRAPP in the absence of MG-132 followed by an additional 24 h incubation (control); and Scenario 3) 12 h preincubation with PRAPP followed by the addition of MG-132 (100 nM) and an additional 24 h incubation. After incubation, the medium was discarded and cells were washed with PBS (1 × 300 μL). Fresh serum-free medium was added, and the cells were irradiated with UV light (312 nm, 120 V, 60 Hz, 0.2 A [Spectroline model EB-160C], distance ∼4 cm) for 15 min. The medium was removed, cells were washed with PBS (2 × 500 μL), and 200 μL of lysis buffer containing Tris HCl (25 mM, pH 7.6), NaCl (150 mM), 1% NP40, 1% sodium deoxycholate, 0.1% SDS, and protease inhibitor cocktail (Sigma-Aldrich, 1:100 v/v) was added to each well. Complete lysis was observed by a microscope after 10 min at 4 °C with agitation. Each lysate was centrifuged at 4 °C for 5 min at 13,000 rpm, and the resulting supernatant was concentrated with a centrifugal filter (Amicon Ultra Centrifugal Filters 3K cutoff, Millipore), normalized to 1.0 mg/mL by the Bradford assay, and analyzed immediately or stored at −80 °C for subsequent analysis.
In a darkened (wrapped with aluminum foil) Eppendorf tube, each lysate (30 μL [30 μg]) was incubated with 10 μL of the freshly prepared “click” premix containing CuSO4 (5 mM), sodium ascorbate (5 mM), TBTA (200 μM), and N3–Alexa-647 (50 μM) were added to PBS (50 mM, pH 7.4). The corresponding final concentrations within the lysate click incubation were: CuSO4 (1.25 mM), sodium ascorbate (1.25 mM), TBTA (50 μM), and N3–Alexa-647 (12.5 μM). The mixture was vortexed briefly and incubated for 1.5 h at 37 °C in the dark. NuPAGE LDS sample loading buffer (4 × 13 μL) was added, and the mixture was denatured in boiling water for 10 min. SDS-PAGE was performed on Novex Bis-Tris gel 4–12% with MES SDS running buffer (90 V constant for 30 min followed by 100 V for 90 min; load volume = 25 μL). Protein standards that gave appropriate visible and fluorescent bands for our application included the BioRad Precision Plus All Blue Protein Standard and Novex Pre-Stained Protein Standard. In-gel fluorescence was monitored (excitation λ = 635 nm; emission λ = 670 nm) using a Typhoon 9400 (GE Healthcare) fluorimager. Densitometric analysis and image refinement were carried out as needed using ImageJ software (NIH, open source). The contrast and brightness of images were modified using ImageJ and/or Microsoft Word to enhance visualization for publication purposes.

[5] = system: 25 kDa covalently modified band in HAP1 cells; assay: Photoaffinity labeling with HAP1 wild-type and Hsp27 knockout cells; type: binding; settings: wild-type (WT) HAP1 cells
Excerpt: First, we conducted photoaffinity labeling studies with wild-type (WT) HAP1 cells to verify the existence of the 25 kDa covalent modification that we observed in PC12 cells.
Figure 7 Photoaffinity Labeling Experiments with HAP1 cells. […] The nonspecific background modifications remain unchanged with increasing concentration of P3, further confirming the 25 kDa covalently modified band as a true target; (B) comparison of the photoaffinity labeling experiments with HAP1 wild-type (WT) cells and Hsp27 knockout (KO) cells at 15 μM PRAPP concentration.

14-3-3-E = molecular target: T2, 14-3-3-E (Homo sapiens, UniProt P62258); assay: Fluorescent thermal shift assay (FTSA) with 14-3-3-E; type: binding; settings: SYPRO orange
T2 construct: His-tag (TEV-cleavable) (cleaved yes); host or cells: E. coli (BL21)
T2 sequence (P62258 1-255): T1 sequence (P62260 1-255)
Experimental: His-tagged 14-3-3-E, B, and H plasmids were purchased from Addgene (plasmid ID# 31562, 39128, and 38814, respectively). E. coli (BL21) were transformed with extracted plasmids via heat shock and plated on selected media. Individual colonies were selected, grown, and sequenced to confirm gene presence. 1 L cultures were grown to an OD600 of 0.6 at 37 °C and 220 rpm. Protein expression was induced with 1 mM IPTG and expressed for 12 h at 100 rpm and room temperature (approximately 25 °C). Cells were spun down at 4000 rpm for 15 min at 4 °C and resuspended in lysis buffer containing 50 mM Tris (7.4), 150 mM NaCl, 0.08% DDM, 5 mM imidazole, and 5% glycerol (with an EDTA-free complete mini protease inhibitor cocktail). Cells were lysed via sonication, and the lysate was separated from cell debris by centrifugation at 15,000 rpm, 4 °C, for 45 min. The His-tagged protein was purified using QIAGEN Ni-NTA superflow columns, and the His-tag was removed with TEV protease. His-tag-removed proteins were further purified by size exclusion chromatography. His tag removal and size exclusion chromatography purification were done at the Northwestern University Protein Production core. 14-3-3-Q and 14-3-3-G proteins were purchased from Abchem (catalog numbers ab85270 and ab53869, respectively).
All of the FTSA experiments were conducted in HEPES buffer (60 mM HEPES, 150 mM NaCl, pH 7.4). A DMSO balanced 8-point dilution series of the compound in HEPES buffer was prepared in a 96-well assay plate (200, 100, 50, 25, 12.5, 6.25, 3.125, and 0 μM). Then, a 5 μL volume of the dilution series was transferred to a 384-well PCR plate using a multichannel pipet, and the plate was centrifuged at 1000 rpm for 2 min (the plate was covered with an adhesive aluminum seal). The protein sample was premixed at a concentration of 0.04 μg/μL with a 5X concentration of SYPRO orange in HEPES buffer, and a 5 μL aliquot was added to the compound wells. The plate was covered with an optical adhesive seal and was shaken for 2 min, followed by centrifugation at 1000 rpm for 2 min. The thermal scan was performed from 20 to 90 °C with a temperature gradient of 0.5 °C/min. The fluorescence was measured on a Bio-Rad CFX384 real-time PCR instrument.

[6] = hits and leads of the authors' earlier work, read-out: EC50

O=C1CC(=O)CC(c2ccc(F)cc2)C1 [compound 3]
EC50 (PC12 SOD1^G93A cells [1]; [6]): 800 nM

C#CCN(Cc1c(F)c(F)c(N=[N+]=[N-])c(F)c1F)Cc1cc(=O)n(C(C)=O)n1C(C)=O [IPC1, 1,1′-(5-(((4-Azido-2,3,5,6-tetrafluorobenzyl)(prop-2-yn-1-yl)amino)methyl)-3-oxo-1H-pyrazole-1,2(3H)-diyl)bis(ethan-1-one)]
EC50 (PC12 SOD1^G93A cells [2]): > 16000 nM

C#CCNCc1c(F)c(F)c(N=[N+]=[N-])c(F)c1F [IPC2, N-(4-Azido-2,3,5,6-tetrafluorobenzyl)prop-2-yn-1-amine]
EC50 (PC12 SOD1^G93A cells [2]): > 16000 nM

CN(Cc1cnc2nc(N)nc(N)c2n1)c1ccc(C(=O)N[C@@H](CCC(=O)O)C(=O)O)cc1 [methotrexate]
drug concentration of maximum response in ITDR CETSA [3]: 100 to 250 µM

Cc1nc2ccc(CN(C)c3ccc(C(=O)N[C@@H](CCC(=O)O)C(=O)O)s3)cc2c(=O)[nH]1 [raltitrexed]
drug concentration of maximum response in ITDR CETSA [3]: 100 to 250 µM

CN(Cc1cc(Cl)cc(Cl)c1)Cc1cc(=O)[nH][nH]1 [P3]
EC50 (PC12 SOD1^G93A cells [1]; leads of the authors' earlier work, read-out: EC50 (NP = neuroprotection)): 400 nM | competitor to PRAPP ratio at complete disappearance of the band ([4]; 30 μM PRAPP): 32 | EC50 ([4]; 30 μM PRAPP, scenario 1, n = 2, read-out: EC50 for the competition with PRAPP (25 kDa band intensity)): 26700 nM | competition of PRAPP labeling, band 1 around 25 kDa [5]: concentration-dependent disappearance

CC1=NN(c2ccccc2)C(=O)C1 [edaravone, reference compound]
concentration-dependent disappearance of the 25 kDa protein band in competition with PRAPP ([4]; 30 μM PRAPP): did not show a quantifiable concentration-dependent disappearance

CC(Oc1cc(C(F)(F)F)cc(C(F)(F)F)c1)C1CC(=O)CC(=O)C1 (stereo not drawn) [P1]
Tm shift (ΔTm) (14-3-3-E): did not show a Tm shift | EC50 (PC12 SOD1^G93A cells [1]; [6]): 300 nM | concentration-dependent disappearance of the 25 kDa protein band in competition with PRAPP ([4]; 30 μM PRAPP): not compete out the 25 kDa covalently modified band in a concentration -dependent manner; also recorded: did not show a quantifiable concentration-dependent disappearance | 25 kDa band intensity in competition with PRAPP ([4]; 480 μM P1 concentration): slight reduction of the 25 kDa band intensity

Cc1cc(SCc2cc(=O)[nH][nH]2)c(C)cc1Cl [compound 4]
EC50 (PC12 SOD1^G93A cells [1]; [6]): 400 nM

From PMC10823514, “Target Identification of a Class of Pyrazolone Protein Aggregation Inhibitor Therapeutics for Amyotrophic Lateral Sclerosis” (ACS Central Science, 2023)
